Patent US20240100031A1, “PHARMACEUTICAL COMPOSITION FOR PREVENTING OR TREATING VIRAL […] PIPERLONGUMINE-BASED COMPOUND AS ACTIVE INGREDIENT” (priority 2020, published 2024)

Test system: novel coronavirus (SARS-CoV-2)
Assay: microbe, parasite or virus in culture
Assay type: cell-based
Conditions: for IC50: Severe acute respiratory syndrome coronavirus 2, Vero, 24 h, read-out: Infection inhibitory concentration IC50

Row | SMILES | IC50 [µM] | inhibition of viral infection compared with positive controls (in words)
1 | CCN(CC)CCCC(C)Nc1ccnc2cc(Cl)ccc12 (centres unmarked) [Chloroquine, reference compound] | 4.1 | 
2 | COC(=O)c1cc(/C=C/C(=O)N2CCC=CC2=O)ccc1OC [Compound 1, (E)-methyl-2-methoxy-5-(3-oxo-3-(2-oxo-5,6-dihydropyridin-1(2H)-yl)prop-1-en-1-yl)benzoate] | 4.46 | 
3 | COC(=O)c1cc(/C=C/C(=O)N2CCC=C(Cl)C2=O)ccc1OC [Compound 3, (E)-methyl-5-(3-(3-chloro-2-oxo-5,6-dihydropyridin-1(2H)-yl)-3-oxoprop-1-en-1-yl)-2-methoxybenzoate] | 2.01 | more remarkable effects than remdesivir
4 | COC(=O)c1cc(/C=C/C(=O)N2CC=CC2=O)ccc1OC(C)=O [Compound 4, (E)-methyl-2-acetoxy-5-(3-oxo-3-(2-oxo-2,5-dihydro-1H-pyrrol-1-yl)prop-1-en-1-yl)benzoate] | 7.68 | 
5 | COC(=O)c1cc(/C=C/C(=O)N2CCC=C(Br)C2=O)ccc1OC [Compound 9, (E)-methyl-5-(3-(3-bromo-2-oxo-5,6-dihydropyridin-1(2H)-yl)-3-oxoprop-1-en-1-yl)-2-methoxybenzoate] | 1.6 | more remarkable effects than remdesivir
6 | COC(=O)c1cc(/C=C/C(=O)N2CCC=C(Br)C2=O)ccc1O [Compound 10, (E)-methyl-5-(3-(3-bromo-2-oxo-5,6-dihydropyridin-1(2H)-yl)-3-oxoprop-1-en-1-yl)-2-hydroxybenzoate] | 2.31 | more remarkable effects than remdesivir
7 | COC(=O)c1cc(/C=C/C(=O)N2CCC=C(Br)C2=O)ccc1OC(C)=O [Compound 11, (E)-methyl-2-acetoxy-5-(3-(3-bromo-2-oxo-5,6-dihydropyridin-1(2H)-yl)-3-oxoprop-1-en-1-yl)benzoate] | 1.97 | more remarkable effects than remdesivir
8 | COC(=O)c1cc(/C=C/C(=O)N2CCC=C(Cl)C2=O)ccc1O [Compound 12, (E)-methyl-5-(3-(3-chloro-2-oxo-5,6-dihydropyridin-1(2H)-yl)-3-oxoprop-1-en-1-yl)-2-hydroxybenzoate] | 2.63 | more remarkable effects than remdesivir
9 | COC(=O)c1cc(/C=C/C(=O)N2CCC=C(Cl)C2=O)ccc1OC(C)=O [Compound 13, (E)-methyl-2-acetoxy-5-(3-(3-chloro-2-oxo-5,6-dihydropyridin-1(2H)-yl)-3-oxoprop-1-en-1-yl)benzoate] | 1.86 | more remarkable effects than remdesivir
10 | O=C(/C=C/c1cccc([N+](=O)[O-])c1)N1CCC=C(Cl)C1=O [Compound 16, (E)-3-chloro-1-(3-(3-nitrophenyl)acryloyl)-5,6-dihydropyridin-2(1H)-one] | 4.19 | 
11 | O=C(/C=C/c1cccc([N+](=O)[O-])c1)N1CCC=C(Br)C1=O [Compound 17, (E)-3-bromo-1-(3-(3-nitrophenyl)acryloyl)-5,6-dihydropyridin-2(1H)-one] | 5.34 | 
12 | COc1cc(/C=C/C(=O)N2CCC=C(Cl)C2=O)cc(OC)c1OCc1nnc(-c2cc(Cl)cc(Cl)c2)o1 [Compound 19, (E)-3-chloro-1-(3-(4-((5-(3,5-dichlorophenyl)-1,3,4-oxadiazol-2-yl)methoxy)-3,5-dimethoxyphenyl)acryloyl)-5,6-dihydropyridin-2(1H)-one] | 4.12 | 
13 | Cc1cccc(C)c1OCC(=O)N[C@@H](Cc1ccccc1)[C@@H](O)C[C@H](Cc1ccccc1)NC(=O)[C@H](C(C)C)N1CCCNC1=O [Lopinavir, lopinavir, reference compound] | 12.7 | 
14 | CCC(CC)COC(=O)[C@H](C)N[P@](=O)(OC[C@H]1O[C@@](C#N)(c2ccc3c(N)ncnn23)[C@H](O)[C@@H]1O)Oc1ccccc1 [Remdesivir, remdesivir, reference compound] | 2.65 | 
